# Measurements: US10308631B2, “Selective anti-cancer compounds” (NATIONAL UNIVERSITY OF SINGAPORE, priority 2015, dated 2019)
# What was measured:
# Type in all cases: cell-based
# [1] = tested on: cleaved PARP and caspase-3 in oncogene-transformed human fibroblast BJ cells; assay: Immunoblot of cleaved PARP and cleaved caspase-3; details: 2.5 and 5 μM, 48 h
# Method: FIGS. 5B, C provide a representation of an immunoblot analysis to examine the PARP or caspase-3 cleavage (B) and a histogram showing Caspase-3/7 activities, plotted as fold induction compared to DMSO-treated cells (C). BJ normal and transformed cells were treated with Compound 1 (a131) for 48 h. Cells were harvested and total lysates were analysed by detecting cleaved PARP or caspase-3 or caspase-3/7 activities as markers for apoptotic induction. […] Student's t-test was performed to determine the statistical significance (**=p<0.001, ***=p<0.0001, n.s.=no significance).
# Whether Compound 1 (a131)-induced cancer cell-lethality was mediated by apoptosis or non-apoptotic programmed cell death was determined. For this purpose, isogenic non-transformed and oncogene-transformed human fibroblast BJ cell lines were cultured in DMEM supplemented with 10% FBS. The cells were treated with Compound 1 (2.5 μM and 5 μM, DMSO). 48 h after treatment, total cell lysates were prepared for immunoblot analysis using antibodies against cleaved PARP and cleaved caspase-3, well-known markers for apoptosis. In addition, a fraction of total cell lysates was also subjected to Caspase-3/7 Glo (Promega) assay to measure the combined activity of caspase 3/7. This was determined using caspase-Glo 3/7 Assay Kit (Promega) and its activity was normalized to a number of viable cells as determined by MTT assay.
# HGC27 = assay: MTT growth inhibition (GI50); details: Homo sapiens, HGC-27, HGC27, gastric cancer, 72 h
# Method: (§1) Having shown that Compound 1 and its derivatives are effective against HeLa cervical cancer cells and human fibroblast BJ cell lines, Compound 1 was then tested against a panel of thirty different human cancer cells lines derived from gastric, colon, liver, breast, lung and cervical tumours and five different human normal cell lines, which were normal fibroblast cell lines (BJ normal, IMR90, WI38) and retinal pigmented epithelium cell lines (ARPE-19, hTert-immortalized RPE-1).
# (§2) The cell lines detailed in Table 2, below, were cultured in the media shown and treated with Compound 1 at a range of different concentrations (from 0.1 μM to 10 μM) for 72 h in triplicate and a mean concentration value for Compound 1 to achieve 50% growth inhibition (GI50) in each cell line was determined by use of the MTT assay.
# (§3) The MTT assay was performed by adding thiazolyl blue tetrazolium bromide (MTT reagent, Invitrogen) at a concentration of 0.5 mg/mL to each cell culture and the resulting mixture incubated for 4 h at 37° C. The medium was then removed, and the blue dye remaining in each well was dissolved in DMSO by mixing with a microplate mixer. The absorbance of each well at 540 nm and 660 nm was measured using a microplate reader (Benchmark plus, BIO-RAD). The optical density (OD) values were calculated by subtracting the absorbance at 660 nm from the absorbance at 540 nm. Mean OD values from control cells containing only DMSO treated wells were set as 100%. The resulting GI50 values (in μM) are set out in Table 2 below.
# HeLa = assay: MTT growth inhibition (GI50); details: Homo sapiens, cancer (others), 72 h
# Method: as §1, §2, §3
# A549 = assay: MTT growth inhibition (GI50); details: Homo sapiens, A549, cancer (others), 72 h
# Method: as §1, §2, §3
# SNU1 = assay: MTT growth inhibition (GI50); details: Homo sapiens, SNU1, gastric cancer, 72 h
# Method: as §1, §2, §3
# Huh7 = assay: MTT growth inhibition (GI50); details: Homo sapiens, Huh-7, Huh7, liver cancer, 72 h
# Method: as §1, §2, §3
# Hep3 = assay: MTT growth inhibition (GI50); details: Homo sapiens, Hep3, liver cancer, 72 h
# Method: as §1, §2, §3
# IST1 = assay: MTT growth inhibition (GI50); details: Homo sapiens, IST1, gastric cancer, 72 h
# Method: as §1, §2, §3
# NCC19 = assay: MTT growth inhibition (GI50); details: Homo sapiens, NCC19, gastric cancer, 72 h
# Method: as §1, §2, §3
# ARPE-19 = assay: MTT growth inhibition (GI50); details: Homo sapiens, ARPE-19, normal cell line, 72 h
# Method: as §1, §2, §3
# AZ521 = assay: MTT growth inhibition (GI50); details: Homo sapiens, AZ-521, AZ521, gastric cancer, 72 h
# Method: as §1, §2, §3
# U2OS = assay: MTT growth inhibition (GI50); details: Homo sapiens, cancer (others), 72 h
# Method: as §1, §2, §3
# MDA-MB-231 = assay: MTT growth inhibition (GI50); details: Homo sapiens, MDA-MB-231, breast cancer, 72 h
# Method: as §1, §2, §3
# DLD1 = assay: MTT growth inhibition (GI50); details: Homo sapiens, DLD-1, DLD1, colon cancer, 72 h
# Method: as §1, §2, §3
# SNU620 = assay: MTT growth inhibition (GI50); details: Homo sapiens, SNU620, gastric cancer, 72 h
# Method: as §1, §2, §3
# NUGC4 = assay: MTT growth inhibition (GI50); details: Homo sapiens, NUGC-4, NUGC4, gastric cancer, 72 h
# Method: as §1, §2, §3
# SNU216 = assay: MTT growth inhibition (GI50); details: Homo sapiens, SNU-216, SNU216, gastric cancer, 72 h
# Method: as §1, §2, §3
# HCT15 = assay: MTT growth inhibition (GI50); details: Homo sapiens, HCT-15, HCT15, colon cancer, 72 h
# Method: as §1, §2, §3
# SNU449 = assay: MTT growth inhibition (GI50); details: Homo sapiens, SNU-449, SNU449, liver cancer, 72 h
# Method: as §1, §2, §3
# SCH = assay: MTT growth inhibition (GI50); details: Homo sapiens, gastric cancer, 72 h
# Method: as §1, §2, §3
# MKN45 = assay: MTT growth inhibition (GI50); details: Homo sapiens, MKN-45, MKN45, gastric cancer, 72 h
# Method: as §1, §2, §3
# WI38 = assay: MTT growth inhibition (GI50); details: Homo sapiens, WI-38, WI38, normal cell line, 72 h
# Method: as §1, §2, §3
# RPE-1/h-Tert = assay: MTT growth inhibition (GI50); details: Homo sapiens, normal cell line, 72 h
# Method: as §1, §2, §3
# NUGC3 = assay: MTT growth inhibition (GI50); details: Homo sapiens, NUGC-3, NUGC3, gastric cancer, 72 h
# Method: as §1, §2, §3
# IMR90 = assay: MTT growth inhibition (GI50); details: Homo sapiens, IMR-90, IMR90, normal cell line, 72 h
# Method: as §1, §2, §3
# HT29 = assay: MTT growth inhibition (GI50); details: Homo sapiens, HT-29, HT29, colon cancer, 72 h
# Method: as §1, §2, §3
smiles,measurement,setting,value
"N#C/C(=C\c1cccc2cnccc12)c1c[nH]c2ccccc12 [Compound 1, (Z)-2-(1H-indol-3-yl)-3-(isoquinolin-5-yl)acrylonitrile]",levels of cleaved PARP and caspase-3,[1],markedly increased the levels of both cleaved PARP and caspase-3
same,GI50,HGC27,1200 nM
same,GI50,HeLa,1400 nM
same,GI50,A549,2000 nM
same,GI50,SNU1,900 nM
same,GI50,Huh7,1200 nM
same,GI50,Hep3,3700 nM
same,GI50,IST1,2200 nM
same,GI50,NCC19,4600 nM
same,GI50,ARPE-19,> 10000 nM
same,GI50,AZ521,2400 nM
same,GI50,U2OS,1500 nM
same,GI50,MDA-MB-231,1100 nM
same,GI50,DLD1,1200 nM
same,GI50,SNU620,1000 nM
same,GI50,NUGC4,> 10000 nM
same,GI50,SNU216,1900 nM
same,GI50,HCT15,500 nM
same,GI50,SNU449,2300 nM
same,GI50,SCH,1700 nM
same,GI50,MKN45,1000 nM
same,GI50,WI38,3400 nM
same,GI50,RPE-1/h-Tert,5200 nM
same,GI50,NUGC3,1000 nM
same,GI50,IMR90,5800 nM
same,GI50,HT29,900 nM
